Read-outs that look alike come from different tables or passages of the source.
Tests used:
Ba/F3-BCR-ABL1-WT cells = assay: Ba/F3-BCR-ABL1-WT cellular proliferation assay; type: cell-based, murine; conditions: Mus musculus, read-out: Ba/F3-BCR-ABL1-WT IC50
Excerpt: The murine bone marrow-derived cell line Ba/F3 was used to generate the appropriate cell line models. Ba/F3 cells were obtained from the German Collection of Microorganisms and Cell Cultures (DSMZ, Braunschweig and DSMZ No. ACC 300). […] These cells are referred to as Ba/F3-WT.
To generate Ba/F3 cells that depend on BCR-ABL1 expression for growth and survival, Ba/F3 cells were engineered to express BCR-ABL1 using retroviral transduction with a MSCV based retroviral vector containing a p210 BCR-ABL1expression cassette. […] These cells are referred to as Ba/F3-BCR-ABL1-WT.
Ba/F3-WT cells were maintained in RPMI1640 media with L-glutamine, HEPES (Lonza), 10% FBS (Gibco) and 5 ng/ml IL-3 (Calbiochem).
For each cell line, the cell density was adjusted to 50 000 cells/mL and 50 μL (2500 cells) added per well of a 384-well assay plate.
Test compounds were resuspended in DMSO at a concentration of 10 mM. A serial three-fold dilution of each compound with DMSO was performed in 384-well plates using the Janus Liquid Dispenser (PerkinElmer). Compound was delivered to the assay plates containing 2500 cells in a 50 μL volume via Acoustic delivery from an ATS-100 (EDC).
Cells were incubated at 37° C. in a humidified environment with 5% carbon dioxide for 48 hours. Britelite plus solution (Perkin Elmer) was prepared according to the manufacturer's instructions and 25 μL added to each well of the assay plate. […] The degree of luminescence correlates with the number of cells in each well. The effect of each inhibitor concentration can therefore be calculated and IC50 values generated.

[1] = Compound concentration in mouse brain and plasma; type: in vivo; conditions: 5 minutes after a single intravenous injection of 1 mg/kg in mice; for concentration at 5 min / Kp at 5 min: mouse; for concentration at 5 min: plasma, read-out: Mean blood (drug concentration in plasma); for Kp at 5 min: brain/plasma, read-out: Mean Ratio (brain/plasma)
Description: Approximately two parts volume of MeOH/water (2/8 v/v) were added to the preweighted brain samples (˜250 mg) and subsequently homogenized using Covaris™ instrument. A 50 μL aliquot was subjected to protein precipitation and analysis as described below.
Fifty μL aliquots of blood or brain homogenate from animals treated with c-ABL inhibitors were first spiked with 5 μL of the internal standard (N-(4-methyl-3-((4-(6-methylpyridin-3-yl)pyrimidin-2-yl)amino)phenyl)-4-((4-methylpiperazin-1-yl)methyl)benzamide for positive ion mode 5-chloro-N-(4-(N-(cyclohexylcarbamoyl)sulfamoyl)-phenethyl)-2-methoxybenzamide for negative ion mode, respectively), subsequently deproteinated by adding MeCN (200 μL), centrifuged, the supernatant evaporated to dryness, and re-dissolved in 100 μL of a MeOH/water (1/1 v/v). Five μL were subjected to HPLC-MS/MS analysis. Chromatographic separation from interfering endogenous and exogenous contaminants was achieved on an Phenomenex™ Polar RP reversed-phase HPLC column (particle size: 2.5 μm; column dimensions: 2×50 mm) using a linear gradient of 100% water containing 1% formic acid (A), and MeOH supplemented with 1% formic acid (B), which was run over 6.0 min from 5% to 90% B, then kept at 100% B for 1.0 min, and a subsequent 1.5 min postrun with re-equilibration of the column. The column was kept at 50° C. The flow of 350 μL/min from the HPLC system (Flux Rheos Allegro LC pump and CTC Pal autosampler) was directly introduced into the ion source of an Finnigan™ Quantum Ultra MS-detector (triple stage quadrupole mass analyzer) and subjected to heated electrospray ionization (HESI).
c-ABL inhibitors were specifically detected using multiple reaction monitoring from their quasi-molecular parent ion ([M+H]^+ or [M−H]^−) to specific daughter ions as given in the table below. Quantification of blood and brain levels of c-ABL inhibitors compounds were based on a 6-level calibration curve made in triplicate.

ABL1 (64-515) = ABL1 (64-515) (Homo sapiens (Human), UniProt P00519); assay: Radio ABL1 (64-515) assay (radiometric filter-binding); type: biochemical
ABL1 (64-515), sequence (P00519 64-515): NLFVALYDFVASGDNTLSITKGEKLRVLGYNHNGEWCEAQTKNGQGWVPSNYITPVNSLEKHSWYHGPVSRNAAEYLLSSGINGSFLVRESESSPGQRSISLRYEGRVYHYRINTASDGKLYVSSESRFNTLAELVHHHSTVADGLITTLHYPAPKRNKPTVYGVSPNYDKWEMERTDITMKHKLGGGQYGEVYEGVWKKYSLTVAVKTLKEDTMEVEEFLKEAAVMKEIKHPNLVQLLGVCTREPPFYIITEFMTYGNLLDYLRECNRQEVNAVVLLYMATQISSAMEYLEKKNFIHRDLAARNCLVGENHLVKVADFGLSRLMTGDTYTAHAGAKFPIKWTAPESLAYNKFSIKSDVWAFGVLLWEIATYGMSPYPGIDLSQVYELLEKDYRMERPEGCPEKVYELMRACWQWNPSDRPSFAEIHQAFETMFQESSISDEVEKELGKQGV
Description: For determination of ABL kinase activity, the radiometric filter-binding assay was used. […] Pre-incubation of enzyme with compounds (when stated) was performed by exposing the enzyme to compounds prior to addition of the substrate mixture (ATP and/or peptide substrate). […] Millipore, Volketswil, Switzerland) prepared according to the manufacturer's instructions. Filter-plates were washed 3× with 0.5% H3PO4, followed by addition of 30 μL scintillation cocktail (Microscint, Perkin Elmer) per well and then analysed in a TopCount NXT scintillation counter (Perkin Elmer). Results were expressed as IC50 values.

SMILES	IC50 (ABL1 (64-515))	also measured
O=C(Nc1ccc(OC(F)(F)F)cc1)c1cccc(-c2cncnc2)c1 [Example 1, 3-(Pyrimidin-5-yl)-N-(4-(trifluoromethoxy)phenyl)benzamide]		IC50 (Ba/F3-BCR-ABL1-WT cells; 48 h): 150 nM; Mean brain (drug concentration in brain) [1]: 4946 pmol/g; concentration at 5 min [1]: 1160 nM
O=C(Nc1ccc(OC(F)(F)F)cc1)c1cccc(-c2cnc(OCCO)nc2)c1 [Example 2, 3-(2-(2-Hydroxyethoxy)pyrimidin-5-yl)-N-(4-(trifluoromethoxy)phenyl)benzamide]	6.5 nM	
N#Cc1cncc(-c2cccc(C(=O)Nc3ccc(OC(F)(F)F)cc3)c2)c1 [Example 3, 3-(5-Cyanopyridin-3-yl)-N-(4-(trifluoromethoxy)phenyl)benzamide]	3.9 nM	
Nc1cnc(-c2cccc(C(=O)Nc3ccc(OC(F)(F)F)cc3)c2)cn1 [Example 4, 3-(5-Aminopyrazin-2-yl)-N-(4-(trifluoromethoxy)phenyl)benzamide]	7 nM	
O=C(Nc1ccc(OC(F)(F)F)cc1)c1cccc(-c2cnccn2)c1 [Example 5, 3-(Pyrazin-2-yl)-N-(4-(trifluoromethoxy)phenyl)benzamide]	3.1 nM	
COC(=O)c1cc(-c2cccc(C(=O)Nc3ccc(OC(F)(F)F)cc3)c2)cs1 [Example 6, Methyl 4-(3-((4-(trifluoromethoxy)phenyl)carbamoyl)phenyl)thiophene-2-carboxylate]	3.3 nM	IC50 (Ba/F3-BCR-ABL1-WT cells; 48 hours): 1060 nM
O=C(Nc1ccc(OC(F)(F)F)cc1)c1cccc(-c2ccc(CN3CCCC3)s2)c1 [Example 7, 3-(5-(Pyrrolidin-1-ylmethyl)thiophen-2-yl)-N-(4-(trifluoromethoxy)phenyl)benzamide]	< 3 nM	
O=C(Nc1ccc(OC(F)(F)F)cc1)c1cccc(-n2ccnc2)c1 [Example 8, 3-(1H-Imidazol-1-yl)-N-(4-(trifluoromethoxy)phenyl)benzamide]	1.9 nM	
O=C(Nc1ccc(OC(F)(F)F)c(F)c1)c1cccc(-c2cncnc2)c1 [Example 9, N-(3-Fluoro-4-(trifluoromethoxy)phenyl)-3-(pyrimidin-5-yl)benzamide]	22 nM	IC50 (Ba/F3-BCR-ABL1-WT cells; 48 hours): 89 nM
O=C(Nc1ccc(CC(F)(F)F)cc1)c1cccc(-c2cncnc2)c1 [Example 12, 3-(Pyrimidin-5-yl)-N-(4-(2,2,2-trifluoroethyl)phenyl)benzamide]		IC50 (Ba/F3-BCR-ABL1-WT cells; 48 hours): 148 nM
COc1ncc(-c2cc(C(=O)Nc3ccc(OC(F)(F)F)cc3)ccc2C)cn1 [Example 13, 3-(2-Methoxypyrimidin-5-yl)-4-methyl-N-(4-(trifluoromethoxy)phenyl)benzamide]	3 nM	IC50 (Ba/F3-BCR-ABL1-WT cells; 48 hours): 4.9 nM; Mean brain (drug concentration in brain) [1]: 4011 pmol/g; Kp at 5 min [1]: 1.29; concentration at 5 min [1]: 3090 nM
Cc1ccc(C(=O)Nc2ccc(OC(F)(F)F)cc2)cc1-c1cccnc1 [Example 15, 4-Methyl-3-(pyridin-3-yl)-N-(4-(trifluoromethoxy)phenyl)benzamide]	4 nM	IC50 (Ba/F3-BCR-ABL1-WT cells; 48 hours): 11 nM; Mean brain (drug concentration in brain) [1]: 6847 pmol/g; Kp at 5 min [1]: 3.2; concentration at 5 min [1]: 2140 nM
O=C(Nc1ccc(OC(F)(F)F)cc1)c1ccc(F)c(-c2cncnc2)c1 [Example 18, 4-fluoro-3-(pyrimidin-5-yl)-N-(4-(trifluoromethoxy)phenyl)benzamide]	3.2 nM	
COc1ncc(-c2cc(C(=O)Nc3ccc(OC(F)(F)F)cc3)ccc2F)cn1 [Example 19, 4-fluoro-3-(2-methoxypyrimidin-5-yl)-N-(4-(trifluoromethoxy)phenyl)benzamide]	12 nM	
O=C(Nc1ccc(OC(F)(F)F)cc1)c1ccc(F)c(-c2cccnc2)c1 [Example 20, 4-fluoro-3-(pyridin-3-yl)-N-(4-(trifluoromethoxy)phenyl)benzamide]	13 nM	
Cn1cc(-c2cc(C(=O)Nc3ccc(OC(F)(F)F)cc3)ccc2F)cn1 [Example 22, 4-fluoro-3-(1-methyl-1H-pyrazol-4-yl)-N-(4-(trifluoromethoxy)phenyl)benzamide]	35 nM	
O=C(Nc1ccc(OC(F)(F)F)cc1)c1ccc(F)c(-c2cc[nH]n2)c1 [Example 23, 4-fluoro-3-(1H-pyrazol-3-yl)-N-(4-(trifluoromethoxy)phenyl)benzamide]	31 nM	IC50 (Ba/F3-BCR-ABL1-WT cells; 48 hours): 693 nM
O=C(Nc1ccc(OC(F)(F)F)cc1)c1ccc(Cl)c(-c2cncnc2)c1 [Example 24, 4-chloro-3-(pyrimidin-5-yl)-N-(4-(trifluoromethoxy)phenyl)benzamide]	< 3 nM	
COc1ncc(-c2cc(C(=O)Nc3ccc(OC(F)(F)F)cc3)ccc2Cl)cn1 [Example 25, 4-chloro-3-(2-methoxypyrimidin-5-yl)-N-(4-(trifluoromethoxy)phenyl)benzamide]	8.1 nM	
O=C(Nc1ccc(OC(F)(F)F)cc1)c1ccc(Cl)c(-c2cccnc2)c1 [Example 26, 4-chloro-3-(pyridin-3-yl)-N-(4-(trifluoromethoxy)phenyl)benzamide]	13 nM	
O=C(Nc1ccc(OC(F)(F)F)cc1)c1ccc(Cl)c(-c2ccncc2)c1 [Example 27, 4-chloro-3-(pyridin-4-yl)-N-(4-(trifluoromethoxy)phenyl)benzamide]	31 nM	

SMILES	IC50 (ABL1 (64-515))	also measured
COc1ccc(C(=O)Nc2ccc(OC(F)(F)F)cc2)cc1-c1cccnc1 [Example 31, 4-methoxy-3-(pyridin-3-yl)-N-(4-(trifluoromethoxy)phenyl)benzamide]	3.2 nM	
COc1ccc(C(=O)Nc2ccc(OC(F)(F)F)cc2)cc1-c1ccc(F)nc1 [Example 32, 3-(6-fluoropyridin-3-yl)-4-methoxy-N-(4-(trifluoromethoxy)phenyl)benzamide]	3.4 nM	
COc1ccc(C(=O)Nc2ccc(OC(F)(F)F)cc2)cc1-c1ccncc1 [Example 33, 4-methoxy-3-(pyridin-4-yl)-N-(4-(trifluoromethoxy)phenyl)benzamide]	8.7 nM	
COc1ccc(C(=O)Nc2ccc(OC(F)(F)F)cc2)cc1-c1cc[nH]n1 [Example 34, 4-methoxy-3-(1H-pyrazol-3-yl)-N-(4-(trifluoromethoxy)phenyl)benzamide]	13 nM	IC50 (Ba/F3-BCR-ABL1-WT cells; 48 hours): 77 nM
COc1ccc(C(=O)Nc2ccc(OC(F)(F)F)cc2)cc1-c1ccc2c(c1)OCO2 [Example 35, 3-(Benzo[d][1,3]dioxol-5-yl)-4-methoxy-N-(4-(trifluoromethoxy)phenyl)benzamide]	9.9 nM	
COc1ccc(C(=O)Nc2ccc(OC(F)(F)F)cc2)cc1-c1ccc(C(C)=O)s1 [Example 36, 3-(5-Acetylthiophen-2-yl)-4-methoxy-N-(4-(trifluoromethoxy)phenyl)benzamide]	3.4 nM	
O=C(Nc1ccc(OC(F)(F)F)cc1)c1ccc(OCCO)c(-c2cncnc2)c1 [Example 38, 4-(2-Hydroxyethoxy)-3-(pyrimidin-5-yl)-N-(4-(trifluoromethoxy)phenyl)benzamide]	< 3 nM	
CC(C)CN1CCN(CCOc2ccc(C(=O)Nc3ccc(OC(F)(F)F)cc3)cc2-c2cncnc2)CC1 [Example 39, 4-(2-(4-Isobutylpiperazin-1-yl)ethoxy)-3-(pyrimidin-5-yl)-N-(4-(trifluoromethoxy)phenyl)benzamide]	< 3 nM	
O=C(Nc1ccc(OC(F)(F)F)cc1)c1ccc(O)c(-c2cncnc2)c1 [Example 41, 4-Hydroxy-3-(pyrimidin-5-yl)-N-(4-(trifluoromethoxy)phenyl)benzamide]	13 nM	
O=C(Nc1ccc(OC(F)(F)F)cc1)c1cncc(-c2cncnc2)c1 [Example 42, 5-(Pyrimidin-5-yl)-N-(4-(trifluoromethoxy)phenyl)nicotinamide]		IC50 (Ba/F3-BCR-ABL1-WT cells; 48 h): 29 nM
COc1ncc(C(=O)Nc2ccc(OC(F)(F)F)cc2)cc1-c1cncnc1 [Example 49, 6-Methoxy-5-(pyrimidin-5-yl)-N-(4-(trifluoromethoxy)phenyl)nicotinamide]	< 3 nM	IC50 (Ba/F3-BCR-ABL1-WT cells; 48 hours): 47 nM
O=C(Nc1ccc(OC(F)(F)F)cc1)c1cnc(OCCNCCO)c(-c2cncnc2)c1 [Example 50, 6-(2-((2-Hydroxyethyl)amino)ethoxy)-5-(pyrimidin-5-yl)-N-(4-(trifluoromethoxy)phenyl)nicotinamide]	4.2 nM	
O=C(Nc1ccc(OC(F)(F)F)cc1)c1cccc(-c2cncnc2)c1F [Example 60, 2-Fluoro-3-(pyrimidin-5-yl)-N-(4-(trifluoromethoxy)phenyl)benzamide]	36 nM	
COc1ncccc1-c1cncc(C(=O)Nc2ccc(OC(F)(F)F)cc2)c1 [Example 62, 2′-Methoxy-N-(4-(trifluoromethoxy)phenyl)-[3,3′-bipyridine]-5-carboxamide]	69 nM	
O=C(Nc1ccc(OC(F)(F)F)cc1)c1cncc(-c2cccnc2O)c1 [Example 63, 2′-Hydroxy-N-(4-(trifluoromethoxy)phenyl)-[3,3′-bipyridine]-5-carboxamide]	77 nM	
O=C(Nc1ccc(OC(F)(F)F)cc1)c1cnc(Cl)c(-c2ncc[nH]2)c1 [Example 65, 6-Chloro-5-(1H-imidazol-2-yl)-N-(4-(trifluoromethoxy)phenyl)nicotinamide]	5 nM	IC50 (Ba/F3-BCR-ABL1-WT cells; 48 hours): 184 nM
COc1ncc(-c2cc(C(=O)Nc3ccc(OC(F)(F)F)cc3)ccn2)cn1 [Example 69, 2-(2-Methoxypyrimidin-5-yl)-N-(4-(trifluoromethoxy)phenyl)isonicotinamide]	< 3 nM	
O=C(Nc1ccc(OC(F)(F)F)cc1)c1ccnc(-c2cncnc2)c1 [Example 70, 2-(Pyrimidin-5-yl)-N-(4-(trifluoromethoxy)phenyl)isonicotinamide]	13 nM	
O=C(Nc1ccc(OC(F)(F)F)cc1)c1cncc(-c2cncnc2)n1 [Example 71, 6-(pyrimidin-5-yl)-N-(4-(trifluoromethoxy)phenyl)pyrazine-2-carboxamide]	660 nM	
O=C(Nc1ccc(OC(F)(F)F)cc1)c1cc(-c2cncnc2)ccn1 [Example 72, 4-(pyrimidin-5-yl)-N-(4-(trifluoromethoxy)phenyl)picolinamide]	650 nM	

Source: patent publication US9315489B2, “Compounds and compositions for inhibiting the activity of ABL1, ABL2 and BCR-ABL1” (Novartis AG, priority 2012, dated 2016)
